Tests used:
Assay type in all cases: in vivo
mustard, Sinapsis alba [1] = assay: Herbicidal activity, post-emergence foliar spray test; settings: assessed visually twelve days after spraying, 0-9 scale, 0 = growth as untreated control, 9 = death
Procedure: (§1) To evaluate their herbicidal activity, compounds according to the invention were tested using as representative range of plants: maize, Zea mays (Mz); rice, Oryza sativa (R); barnyard grass, Echinochloa crusgalli (BG); oat, Avena sativa (0); linseed, Linum usitatissisum (L); mustard, Sinapsis alba (M); sugar beet, Beta vulgaris (SB) and soya bean, Glycine max (S).
(§2) The tests fall into two categories, pre-emergence and post-emergence. […] The post-emergence tests involved two types of test, viz., soil drench and foliar spray tests. In the soil drench tests the soil in which the seedling plants of the above species were growing was drenched with a liquid formulation containing a compound of the invention, and in the foliar spray tests the seedling plants were sprayed with such a formulation.
(§3) The soil used in the tests was a prepared horticultural loam.
(§4) These acetone solutions were diluted with water and the resulting formulations applied at dosage levels corresponding to 5 kg or 1 kg of active material per hectare in a volume equivalent to 600 litres per hectare in the soil spray and foliar spray test, and at a dosage of level equivalent to 10 kilograms of active material per hectare in a volume equivalent to approximately 3,000 litres per hectare in the soil drench tests.
(§5) In the pre-emexgence tests untreated sown soil and in the post-emergence tests untreated soil bearing seedling plants were used as controls.
(§6) The herbicidal effects of the test compounds were assessed visually twelve days after spraying the foliage and the soil, and thirteen days after drenching the soil and were recorded on a 0-9 scale. A rating 0 indicates growth as untreated control, a rating 9 indicates death. An increase of 1 unit on the linear scale approximates to a 10% increase in the level of effect.

[2] = tested on: barnyard grass, Echinochloa crusgalli; assay: as above; settings: assessed visually twelve days after spraying, 0-9 scale, 0 = growth as untreated control, 9 = death
Procedure: as §1, §2, §3, §4, §5, §6

soya bean, Glycine max [3] = assay: as above; settings: assessed visually twelve days after spraying, 0-9 scale, 0 = growth as untreated control, 9 = death
Procedure: as §1, §2, §3, §4, §5, §6

[4] = tested on: sugar beet, Beta vulgaris; assay: as above; settings: assessed visually twelve days after spraying, 0-9 scale, 0 = growth as untreated control, 9 = death
Procedure: as §1, §2, §3, §4, §5, §6

[5] = tested on: linseed, Linum usitatissisum; assay: as above; settings: assessed visually twelve days after spraying, 0-9 scale, 0 = growth as untreated control, 9 = death
Procedure: as §1, §2, §3, §4, §5, §6

maize, Zea mays [6] = assay: as above; settings: assessed visually twelve days after spraying, 0-9 scale, 0 = growth as untreated control, 9 = death
Procedure: as §1, §2, §3, §4, §5, §6

oat, Avena sativa [7] = assay: as above; settings: assessed visually twelve days after spraying, 0-9 scale, 0 = growth as untreated control, 9 = death
Procedure: as §1, §2, §3, §4, §5, §6

rice, Oryza sativa [8] = assay: as above; settings: assessed visually twelve days after spraying, 0-9 scale, 0 = growth as untreated control, 9 = death
Procedure: as §1, §2, §3, §4, §5, §6

mustard, Sinapsis alba [9] = assay: Herbicidal activity, post-emergence soil drench test; settings: 10 kg/ha soil drench; assessed visually thirteen days after drenching; 0-9 scale, 0 = growth as untreated control, 9 = death
Procedure: as §1, §2, §3, §4, §5, §6

[10] = tested on: barnyard grass, Echinochloa crusgalli; assay: as above; settings: 10 kg/ha soil drench; assessed visually thirteen days after drenching; 0-9 scale, 0 = growth as untreated control, 9 = death
Procedure: as §1, §2, §3, §4, §5, §6

soya bean, Glycine max [11] = assay: as above; settings: 10 kg/ha soil drench; assessed visually thirteen days after drenching; 0-9 scale, 0 = growth as untreated control, 9 = death
Procedure: as §1, §2, §3, §4, §5, §6

[12] = tested on: sugar beet, Beta vulgaris; assay: as above; settings: 10 kg/ha soil drench; assessed visually thirteen days after drenching; 0-9 scale, 0 = growth as untreated control, 9 = death
Procedure: as §1, §2, §3, §4, §5, §6

[13] = tested on: linseed, Linum usitatissisum; assay: as above; settings: 10 kg/ha soil drench; assessed visually thirteen days after drenching; 0-9 scale, 0 = growth as untreated control, 9 = death
Procedure: as §1, §2, §3, §4, §5, §6

maize, Zea mays [14] = assay: as above; settings: 10 kg/ha soil drench; assessed visually thirteen days after drenching; 0-9 scale, 0 = growth as untreated control, 9 = death
Procedure: as §1, §2, §3, §4, §5, §6

oat, Avena sativa [15] = assay: as above; settings: 10 kg/ha soil drench; assessed visually thirteen days after drenching; 0-9 scale, 0 = growth as untreated control, 9 = death
Procedure: as §1, §2, §3, §4, §5, §6

rice, Oryza sativa [16] = assay: as above; settings: 10 kg/ha soil drench; assessed visually thirteen days after drenching; 0-9 scale, 0 = growth as untreated control, 9 = death
Procedure: as §1, §2, §3, §4, §5, §6

mustard, Sinapsis alba [17] = assay: Herbicidal activity, pre-emergence test (soil spray); settings: assessed visually twelve days after spraying, 0-9 scale, 0 = growth as untreated control, 9 = death
Procedure: as §1, §2, §3, §4, §5, §6

[18] = tested on: barnyard grass, Echinochloa crusgalli; assay: as above; settings: assessed visually twelve days after spraying, 0-9 scale, 0 = growth as untreated control, 9 = death
Procedure: as §1, §2, §3, §4, §5, §6

soya bean, Glycine max [19] = assay: as above; settings: assessed visually twelve days after spraying, 0-9 scale, 0 = growth as untreated control, 9 = death
Procedure: as §1, §2, §3, §4, §5, §6

[20] = tested on: sugar beet, Beta vulgaris; assay: as above; settings: assessed visually twelve days after spraying, 0-9 scale, 0 = growth as untreated control, 9 = death
Procedure: as §1, §2, §3, §4, §5, §6

[21] = tested on: linseed, Linum usitatissisum; assay: as above; settings: assessed visually twelve days after spraying, 0-9 scale, 0 = growth as untreated control, 9 = death
Procedure: as §1, §2, §3, §4, §5, §6

maize, Zea mays [22] = assay: as above; settings: assessed visually twelve days after spraying, 0-9 scale, 0 = growth as untreated control, 9 = death
Procedure: as §1, §2, §3, §4, §5, §6

oat, Avena sativa [23] = assay: as above; settings: assessed visually twelve days after spraying, 0-9 scale, 0 = growth as untreated control, 9 = death
Procedure: as §1, §2, §3, §4, §5, §6

rice, Oryza sativa [24] = assay: as above; settings: assessed visually twelve days after spraying, 0-9 scale, 0 = growth as untreated control, 9 = death
Procedure: as §1, §2, §3, §4, §5, §6

COC(=O)c1cc2cc3c(cc2nc1C1=NC(C)(C(C)C)C(=O)N1C(C)=O)OCO3 (centres unmarked) [Example 3, Methyl-2-(1-acetyl-4-isopropyl-4-methyl-5-oxo-2-imidazolin-2-yl)-[1,3]-dioxolo[4,5-g] quinoline-3-carboxylate]
Foliar spray M (herbicidal effect rating) (mustard, Sinapsis alba [1]; Dosage 1 kg/ha): 3 | Foliar spray M (herbicidal effect rating) (mustard, Sinapsis alba [1]; Dosage 5 kg/ha): 6 | Foliar spray BG (herbicidal effect rating) ([2]; Dosage 1 kg/ha): 5 | Foliar spray BG (herbicidal effect rating) ([2]; Dosage 5 kg/ha): 7 | Foliar spray S (herbicidal effect rating) (soya bean, Glycine max [3]; Dosage 1 kg/ha): 1 | Foliar spray S (herbicidal effect rating) (soya bean, Glycine max [3]; Dosage 5 kg/ha): 3 | Foliar spray SB (herbicidal effect rating) ([4]; Dosage 1 kg/ha): 5 | Foliar spray SB (herbicidal effect rating) ([4]; Dosage 5 kg/ha): 7 | Foliar spray L (herbicidal effect rating) ([5]; Dosage 1 kg/ha): 5 | Foliar spray L (herbicidal effect rating) ([5]; Dosage 5 kg/ha): 6 | Foliar spray Mz (herbicidal effect rating) (maize, Zea mays [6]; Dosage 1 kg/ha): 4 | Foliar spray Mz (herbicidal effect rating) (maize, Zea mays [6]; Dosage 5 kg/ha): 6 | Foliar spray O (herbicidal effect rating) (oat, Avena sativa [7]; Dosage 1 kg/ha): 3 | Foliar spray O (herbicidal effect rating) (oat, Avena sativa [7]; Dosage 5 kg/ha): 5 | Foliar spray R (herbicidal effect rating) (rice, Oryza sativa [8]; Dosage 1 kg/ha): 2 | Foliar spray R (herbicidal effect rating) (rice, Oryza sativa [8]; Dosage 5 kg/ha): 5 | Soil drench 10/kg/ha M (herbicidal effect rating) (mustard, Sinapsis alba [9]): 7 | Soil drench 10/kg/ha BG (herbicidal effect rating) [10]: 7 | Soil drench 10/kg/ha S (herbicidal effect rating) (soya bean, Glycine max [11]): 0 | Soil drench 10/kg/ha SB (herbicidal effect rating) [12]: 8 | Soil drench 10/kg/ha L (herbicidal effect rating) [13]: 6 | Soil drench 10/kg/ha Mz (herbicidal effect rating) (maize, Zea mays [14]): 5 | Soil drench 10/kg/ha O (herbicidal effect rating) (oat, Avena sativa [15]): 6 | Soil drench 10/kg/ha R (herbicidal effect rating) (rice, Oryza sativa [16]): 5 | Pre-emergence M (herbicidal effect rating) (mustard, Sinapsis alba [17]; Dosage 1 kg/ha): 2 | Pre-emergence M (herbicidal effect rating) (mustard, Sinapsis alba [17]; Dosage 5 kg/ha): 4 | Pre-emergence BG (herbicidal effect rating) ([18]; Dosage 1 kg/ha): 4 | Pre-emergence BG (herbicidal effect rating) ([18]; Dosage 5 kg/ha): 7 | Pre-emergence S (herbicidal effect rating) (soya bean, Glycine max [19]; Dosage 1 kg/ha): 0 | Pre-emergence S (herbicidal effect rating) (soya bean, Glycine max [19]; Dosage 5 kg/ha): 0 | Pre-emergence SB (herbicidal effect rating) ([20]; Dosage 1 kg/ha): 4 | Pre-emergence SB (herbicidal effect rating) ([20]; Dosage 5 kg/ha): 8 | Pre-emergence L (herbicidal effect rating) ([21]; Dosage 1 kg/ha): 5 | Pre-emergence L (herbicidal effect rating) ([21]; Dosage 5 kg/ha): 8 | Pre-emergence Mz (herbicidal effect rating) (maize, Zea mays [22]; Dosage 1 kg/ha): 4 | Pre-emergence Mz (herbicidal effect rating) (maize, Zea mays [22]; Dosage 5 kg/ha): 8 | Pre-emergence O (herbicidal effect rating) (oat, Avena sativa [23]; Dosage 1 kg/ha): 4 | Pre-emergence O (herbicidal effect rating) (oat, Avena sativa [23]; Dosage 5 kg/ha): 6 | Pre-emergence R (herbicidal effect rating) (rice, Oryza sativa [24]; Dosage 1 kg/ha): 2 | Pre-emergence R (herbicidal effect rating) (rice, Oryza sativa [24]; Dosage 5 kg/ha): 5

CC(C)C1(C)NC(c2nc3cc4c(cc3cc2C(=O)[O-])OCO4)=NC1=O.[Na+] (centres unmarked) [Example 4, Sodivmt-2-(5-isopropyl-5-methyl-4-oxo-2-imidazolin-2-yl)-[1,3]-dioxolo[4,5-g] quinoline-3-carboxylic acid (salt)]
Foliar spray M (herbicidal effect rating) (mustard, Sinapsis alba [1]; Dosage 1 kg/ha): 8 | Foliar spray M (herbicidal effect rating) (mustard, Sinapsis alba [1]; Dosage 5 kg/ha): 8 | Foliar spray BG (herbicidal effect rating) ([2]; Dosage 1 kg/ha): 7 | Foliar spray BG (herbicidal effect rating) ([2]; Dosage 5 kg/ha): 8 | Foliar spray S (herbicidal effect rating) (soya bean, Glycine max [3]; Dosage 1 kg/ha): 2 | Foliar spray S (herbicidal effect rating) (soya bean, Glycine max [3]; Dosage 5 kg/ha): 3 | Foliar spray SB (herbicidal effect rating) ([4]; Dosage 1 kg/ha): 7 | Foliar spray SB (herbicidal effect rating) ([4]; Dosage 5 kg/ha): 8 | Foliar spray L (herbicidal effect rating) ([5]; Dosage 1 kg/ha): 6 | Foliar spray L (herbicidal effect rating) ([5]; Dosage 5 kg/ha): 6 | Foliar spray Mz (herbicidal effect rating) (maize, Zea mays [6]; Dosage 1 kg/ha): 4 | Foliar spray Mz (herbicidal effect rating) (maize, Zea mays [6]; Dosage 5 kg/ha): 6 | Foliar spray O (herbicidal effect rating) (oat, Avena sativa [7]; Dosage 1 kg/ha): 4 | Foliar spray O (herbicidal effect rating) (oat, Avena sativa [7]; Dosage 5 kg/ha): 4 | Foliar spray R (herbicidal effect rating) (rice, Oryza sativa [8]; Dosage 1 kg/ha): 4 | Foliar spray R (herbicidal effect rating) (rice, Oryza sativa [8]; Dosage 5 kg/ha): 4 | Soil drench 10/kg/ha M (herbicidal effect rating) (mustard, Sinapsis alba [9]): 8 | Soil drench 10/kg/ha BG (herbicidal effect rating) [10]: 8 | Soil drench 10/kg/ha S (herbicidal effect rating) (soya bean, Glycine max [11]): 6 | Soil drench 10/kg/ha SB (herbicidal effect rating) [12]: 8 | Soil drench 10/kg/ha L (herbicidal effect rating) [13]: 6 | Soil drench 10/kg/ha Mz (herbicidal effect rating) (maize, Zea mays [14]): 5 | Soil drench 10/kg/ha O (herbicidal effect rating) (oat, Avena sativa [15]): 4 | Soil drench 10/kg/ha R (herbicidal effect rating) (rice, Oryza sativa [16]): 5 | Pre-emergence M (herbicidal effect rating) (mustard, Sinapsis alba [17]; Dosage 1 kg/ha): 7 | Pre-emergence M (herbicidal effect rating) (mustard, Sinapsis alba [17]; Dosage 5 kg/ha): 7 | Pre-emergence BG (herbicidal effect rating) ([18]; Dosage 1 kg/ha): 8 | Pre-emergence BG (herbicidal effect rating) ([18]; Dosage 5 kg/ha): 8 | Pre-emergence S (herbicidal effect rating) (soya bean, Glycine max [19]; Dosage 1 kg/ha): 2 | Pre-emergence S (herbicidal effect rating) (soya bean, Glycine max [19]; Dosage 5 kg/ha): 5 | Pre-emergence SB (herbicidal effect rating) ([20]; Dosage 1 kg/ha): 8 | Pre-emergence SB (herbicidal effect rating) ([20]; Dosage 5 kg/ha): 8 | Pre-emergence L (herbicidal effect rating) ([21]; Dosage 1 kg/ha): 8 | Pre-emergence L (herbicidal effect rating) ([21]; Dosage 5 kg/ha): 9 | Pre-emergence Mz (herbicidal effect rating) (maize, Zea mays [22]; Dosage 1 kg/ha): 8 | Pre-emergence Mz (herbicidal effect rating) (maize, Zea mays [22]; Dosage 5 kg/ha): 8 | Pre-emergence O (herbicidal effect rating) (oat, Avena sativa [23]; Dosage 1 kg/ha): 5 | Pre-emergence O (herbicidal effect rating) (oat, Avena sativa [23]; Dosage 5 kg/ha): 6 | Pre-emergence R (herbicidal effect rating) (rice, Oryza sativa [24]; Dosage 1 kg/ha): 8 | Pre-emergence R (herbicidal effect rating) (rice, Oryza sativa [24]; Dosage 5 kg/ha): 9

Source: patent EP0198522A1, “Heterocyclic herbicides” (SHELL INTERNATIONALE RESEARCH MAATSCHAPPIJ B.V., priority 1985, dated 1986)
